Experimental data as given in patent publication US10471046B2, “Method for treating, preventing, or reducing the risk of skin infection” (Melinta Subsidiary Corp., priority 2014, dated 2019).
Converted amounts (≈) assume the structure as drawn. Where two headings read alike, the source gives them in different places.

Test system: S. aureus
Experiment: Minimum inhibitory concentrations (MICs) for S. aureus of exemplary compounds (Table 2)
Type: cell-based
Details: Staphylococcus aureus, read-out: MICs
Text: Exemplary compounds in accordance with the invention are listed in Table 2 with their minimum inhibitory concentrations (MICs) (μg/mL) for S. aureus:
Furthermore, the antibiotic compounds can be assayed for anti-proliferative or anti-infective properties on a cellular level. For example, where the target organism is a microorganism, the activity of compounds of interest can be assayed by growing the microorganisms of interest in media either containing or lacking the compound. Growth inhibition can be indicative that the molecule could be acting as a protein synthesis inhibitor. […] For this purpose, a panel of bacterial strains can be assembled to include a variety of target pathogenic species, some containing resistance mechanisms that have been characterized. Use of such a panel of organisms permits the determination of structure-activity relationships not only in regards to potency and spectrum, but also with a view to obviating resistance mechanisms. The assays can be performed in microtiter trays according to conventional methodologies as published by The National Committee for Clinical Laboratory Standards (NCCLS) guidelines (NCCLS. M7-A5-Methods for Dilution Antimicrobial Susceptibility Tests for Bacteria That Grow Aerobically; Approved Standard-Fifth Edition. NCCLS Document M100-S12/M7 (ISBN 1-56238-394-9)).

[1] = minimum inhibitory concentrations for S. aureus

CC(=O)NC[C@H]1CN(c2ccc(-c3ccc(CNCc4cc(C)oc4C(F)(F)F)cc3)c(F)c2)C(=O)O1 [Compound 4105, N-[3-(2-Fluoro-4′-{[(5-methyl-2-trifluoromethyl-furan-3-ylmethyl)-amino]-methyl}-biphenyl-4-yl)-2-oxo-oxazolidin-5-(S)-ylmethyl]-acetamide]
MIC [1]: 0.5 mg/L (≈ 0.962 µM)

CC(=O)NC[C@H]1CN(c2ccc(-c3ccc(C(=O)NCc4ccccn4)c(F)c3)c(F)c2)C(=O)O1 [Compound 4190, 4′-[5-(S)-(Acetylamino-methyl)-2-oxo-oxazolidin-3-yl]-3,2′-difluoro-biphenyl-4-carboxylic acid (pyridin-2-ylmethyl)-amide]
MIC [1]: 1 mg/L (≈ 2.08 µM)

CC(=O)NC[C@H]1CN(c2ccc(-c3ccc(CNCc4c(N)oc5ccccc5c4=O)cc3)c(F)c2)C(=O)O1 [Compound 4129, N-[3-(4′-{[(2-Amino-4-oxo-4H-chromen-3-ylmethyl)-amino]-methyl}-2-fluoro-biphenyl-4-yl)-2-oxo-oxazolidin-5-(S)-ylmethyl]-acetamide]
MIC [1]: 4 mg/L (≈ 7.54 µM)

CC(=O)NC[C@H]1CN(c2ccc(-c3ccc(CNC(=O)c4ccc5c(c4)OCO5)cc3)c(F)c2)C(=O)O1 [Compound 4014, Benzo[1,3]dioxole-5-carboxylic acid {4′-[5-(S)-(acetylamino-methyl)-2-oxo-oxazolidin-3-yl]-2′-fluoro-biphenyl-4-ylmethyl}-amide]
MIC [1]: 4 mg/L (≈ 7.91 µM)

CC(=O)NC[C@H]1CN(c2ccc(-c3ccc(Cn4cncn4)cc3)c(F)c2)C(=O)O1 [Compound 1037, N-[3-(2-Fluoro-4′-[1,2,4]triazol-1-ylmethyl-biphenyl-4-yl)-2-oxo-oxazolidin-5-(S)-ylmethyl]-acetamide]
MIC [1]: 0.5 mg/L (≈ 1.22 µM)

CC(=O)NC[C@H]1CN(c2ccc(-c3ccc(CNC(=O)C(N)Cc4cccnc4)cc3)c(F)c2)C(=O)O1 (stereo in doubt) [Compound 4310, N-{4′-[5-(S)-(Acetylamino-methyl)-2-oxo-oxazolidin-3-yl]-2′-fluoro-biphenyl-4-ylmethyl}-2-(R)-amino-3-pyridin-3-yl-propionamide]
MIC [1]: 4 mg/L (≈ 7.91 µM)

CC(=O)NC[C@H]1CN(c2ccc(-c3ccc(CN4CC[C@H](N)C4)cc3)c(F)c2)C(=O)O1 [Compound 1092, N-{3-[4′-(3-(S)-Amino-pyrrolidin-1-ylmethyl)-2-fluoro-biphenyl-4-yl]-2-oxo-oxazolidin-5-(S)-ylmethyl}-acetamide]
MIC [1]: 4 mg/L (≈ 9.38 µM)

CC(=O)NC[C@H]1CN(c2ccc(-c3ccc(C(=O)NCCc4cnc[nH]4)cc3)c(F)c2)C(=O)O1 [Compound 4116, 4′-[5-(S)-(Acetylamino-methyl)-2-oxo-oxazolidin-3-yl]-2′-fluoro-biphenyl-4-carboxylic acid [2-(3H-imidazol-4-yl)-ethyl]-amide]
MIC [1]: 1 mg/L (≈ 2.15 µM)

CC(=O)NC[C@H]1CN(c2ccc(-c3ccc(CNC(=O)C4CCN4)cc3)c(F)c2)C(=O)O1 (stereo partly drawn) [Compound 4296, Azetidine-2-carboxylic acid {4′-[5-(S)-(acetylamino-methyl)-2-oxo-oxazolidin-3-yl]-2′-fluoro-biphenyl-4-ylmethyl}-amide]
MIC [1]: 2 mg/L (≈ 4.54 µM)

Cn1nnnc1SC[C@H]1CN(c2ccc(-c3ccc(CNCc4ccncc4)cc3)c(F)c2)C(=O)O1 [Compound 4231, 3-(2-Fluoro-4′-{[(pyridin-4-ylmethyl)-amino]-methyl}-biphenyl-4-yl)-5-(R)-(1-methyl-1H-tetrazol-5-ylsulfanylmethyl)-oxazolidin-2-one]
MIC [1]: 32 mg/L (≈ 63.3 µM)

CC(=O)NC[C@H]1CN(c2ccc(-c3ccc(CNCC(F)(F)c4ccccn4)cc3)c(F)c2)C(=O)O1 [Compound 4177, N-(3-{4′-[(2,2-Difluoro-2-pyridin-2-yl-ethylamino)-methyl]-2-fluoro-biphenyl-4-yl}-2-oxo-oxazolidin-5-(S)-ylmethyl)-acetamide]
MIC [1]: 4 mg/L (≈ 8.02 µM)

CC(=O)NC[C@H]1CN(c2cc(F)c(-c3ccc(Cn4cc(CN(C)C)nn4)cc3)c(F)c2)C(=O)O1 [Compound 1019, N-{3-[4′-(4-Dimethylaminomethyl-[1,2,3]triazol-1-ylmethyl)-2,6-difluoro-biphenyl-4-yl]-2-oxo-oxazolidin-5-(S)-ylmethyl}-acetamide]
MIC: 2 mg/L (≈ 4.13 µM)

CC(=O)NC[C@H]1CN(c2ccc(-c3ccc(CNC(=O)[C@@H]4CCCN4)cc3)c(F)c2)C(=O)O1 [Compound 4309, Pyrrolidine-2-(S)-carboxylic acid {4′-[5-(S)-(acetylamino-methyl)-2-oxo-oxazolidin-3-yl]-2′-fluoro-biphenyl-4-ylmethyl}-amide]
MIC [1]: 8 mg/L (≈ 17.6 µM)

CC(=O)NC[C@H]1CN(c2ccc(-c3ccc(CNCc4nc5ccccc5s4)cc3)c(F)c2)C(=O)O1 [Compound 4121, N-[3-(4′-{[(Benzothiazol-2-ylmethyl)-amino]-methyl}-2-fluoro-biphenyl-4-yl)-2-oxo-oxazolidin-5-(S)-ylmethyl]-acetamide]
MIC [1]: 0.5 mg/L (≈ 0.991 µM)

CC(=O)NC[C@H]1CN(c2ccc(-c3ccc(C(=O)NCc4ncsn4)cc3)c(F)c2)C(=O)O1 [Compound 4225, 4′-[5-(S)-(Acetylamino-methyl)-2-oxo-oxazolidin-3-yl]-2′-fluoro-biphenyl-4-carboxylic acid ([1,2,4]thiadiazol-3-ylmethyl)-amide]
MIC [1]: 1 mg/L (≈ 2.13 µM)

CC(=O)NC[C@H]1CN(c2ccc(-c3ccc([C@H](O)Cn4ccnn4)cc3)c(F)c2)C(=O)O1 [Compound 1061, N-{3-[2-Fluoro-4′-(1-(S)-hydroxy-2-[1,2,3]triazol-1-yl-ethyl)-biphenyl-4-yl]-2-oxo-oxazolidin-5-(S)-ylmethyl}-acetamide]
MIC [1]: 1 mg/L (≈ 2.28 µM)

CC(=O)NC[C@H]1CN(c2ccc(-c3ccc(CNCc4noc(C)n4)cc3)c(F)c2)C(=O)O1 [Compound 4141, N-[3-(2-Fluoro-4′-{[(5-methyl-[1,2,4]oxadiazol-3-ylmethyl)-amino]-methyl}-biphenyl-4-yl)-2-oxo-oxazolidin-5-(S)-ylmethyl]-acetamide]
MIC [1]: 2 mg/L (≈ 4.41 µM)

CC(=O)NC[C@H]1CN(c2ccc(-c3ccc(CN(Cc4csnn4)C(C)=O)cc3)c(F)c2)C(=O)O1 [Compound 4204, N-(3-{4′-[(Acetyl-[1,2,3]thiadiazol-4-ylmethyl-amino)-methyl]-2-fluoro-biphenyl-4-yl}-2-oxo-oxazolidin-5-(S)-ylmethyl)-acetamide]
MIC [1]: 2 mg/L (≈ 4.02 µM)

O=C(NC[C@H]1CN(c2ccc(-c3ccc(Cn4cnnn4)cc3)c(F)c2)C(=O)O1)C(Cl)Cl [Compound 1034, 2,2-Dichloro-N-[3-(2-fluoro-4′-tetrazol-1-ylmethyl-biphenyl-4-yl)-2-oxo-oxazolidin-5-(S)-ylmethyl]-acetamide]
MIC [1]: 0.5 mg/L (≈ 1.04 µM)

CC(=O)NC[C@H]1CN(c2ccc(-c3ccc(CNCc4ccc([N+](=O)[O-])o4)cc3)c(F)c2)C(=O)O1 [Compound 4069, N-[3-(2-Fluoro-4′-{[(5-nitro-furan-2-ylmethyl)-amino]-methyl}-biphenyl-4-yl)-2-oxo-oxazolidin-5-(S)-ylmethyl]-acetamide]
MIC [1]: 1 mg/L (≈ 2.07 µM)

CC(=O)NC[C@H]1CN(c2ccc(-c3ccc(CNCCc4ccccn4)cc3)c(F)c2)C(=O)O1 [Compound 4087, N-(3-{2-Fluoro-4′-[(2-pyridin-2-yl-ethylamino)-methyl]-biphenyl-4-yl}-2-oxo-oxazolidin-5-(S)-ylmethyl)-acetamide]
MIC [1]: 4 mg/L (≈ 8.65 µM)

CC(=O)NC[C@H]1CN(c2ccc(-c3ccc(CNC(=O)C4CCN4C(=O)OC(C)(C)C)cc3)c(F)c2)C(=O)O1 (stereo partly drawn) [Compound 4295, 2-({4′-[5-(S)-(Acetylamino-methyl)-2-oxo-oxazolidin-3-yl]-2′-fluoro-biphenyl-4-ylmethyl}-carbamoyl)-azetidine-1-carboxylic acid tert-butyl ester]
MIC [1]: 8 mg/L (≈ 14.8 µM)

CCOC(=O)c1cnn(Cc2ccc(-c3ccc(N4C[C@H](CNC(C)=O)OC4=O)cc3F)cc2)c1 [Compound 1049, 1-{4′-[5-(S)-(Acetylamino-methyl)-2-oxo-oxazolidin-3-yl]-2′-fluoro-biphenyl-4-ylmethyl}-1H-pyrazole-4-carboxylic acid ethyl ester]
MIC [1]: 0.5 mg/L (≈ 1.04 µM)

CC(=O)NC[C@H]1CN(c2ccc(-c3ccc(CNCc4ccco4)cc3)c(F)c2)C(=O)O1 [Compound 4026, N-[3-(2-Fluoro-4′-{[(furan-2-ylmethyl)-amino]-methyl}-biphenyl-4-yl)-2-oxo-oxazolidin-5-(S)-ylmethyl]-acetamide]
MIC [1]: 1 mg/L (≈ 2.29 µM)

CC(=O)NC[C@H]1CN(c2ccc(-c3ccc(CNCc4nn(C)cc4Br)cc3)c(F)c2)C(=O)O1 [Compound 4168, N-[3-(4′-{[(4-Bromo-1-methyl-1H-pyrazol-3-ylmethyl)-amino]-methyl}-2-fluoro-biphenyl-4-yl)-2-oxo-oxazolidin-5-(S)-ylmethyl]-acetamide]
MIC [1]: 2 mg/L (≈ 3.77 µM)

CC(=O)NC[C@H]1CN(c2ccc(-c3ccc(CS(=O)(=O)Cc4ccncc4)cc3)c(F)c2)C(=O)O1 [Compound 4214, N-{3-[2-Fluoro-4′-(pyridin-4-ylmethanesulfonylmethyl)-biphenyl-4-yl]-2-oxo-oxazolidin-5-(S)-ylmethyl}-acetamide]
MIC [1]: 1 mg/L (≈ 2.01 µM)

CC(=O)NC[C@H]1CN(c2ccc(-c3ccc(CNC(=O)Nc4ccncc4)cc3)c(F)c2)C(=O)O1 [Compound 5012, N-(3-{2-Fluoro-4′-[(3-pyridin-4-yl-ureido)-methyl]-biphenyl-4-yl}-2-oxo-oxazolidin-5-(S)-ylmethyl)-acetamide]
MIC [1]: 2 mg/L (≈ 4.19 µM)

CC(=O)NC[C@H]1CN(c2ccc(-c3ccc(CNCCSc4cnn[nH]4)cc3)c(F)c2)C(=O)O1 [Compound 5001, N-[3-(2-Fluoro-4′-{[2-(3H-[1,2,3]triazol-4-ylsulfanyl)-ethylamino]-methyl}-biphenyl-4-yl)-2-oxo-oxazolidin-5-(S)-ylmethyl]-acetamide]
MIC [1]: 1 mg/L (≈ 2.06 µM)
